Results taken from PubChem BioAssay (NCI).
Values joined by “and” are separate entries in the source; they are usually repeats but may differ in a detail not shown here. Equal values may be shown once.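 Assay format: 96-well plates, 48-hour exposure. GI50 marks 50% less growth. The concentration for full growth arrest is given as TGI.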

Legend:
Test in all cases: NCI tumour cell line growth inhibition, 48 h
CAKI-1 renal = test system: CAKI-1 renal
ACHN renal = test system: ACHN renal
MALME-3M melanoma = test system: MALME-3M melanoma
SK-OV-3 ovarian = test system: SK-OV-3 ovarian
NCI-H522 lung = test system: NCI-H522 lung
U251 CNS = test system: U251 CNS
TK-10 renal = test system: TK-10 renal
786-0 renal = test system: 786-0 renal
COLO 205 colon = test system: COLO 205 colon
HCT-116 colon = test system: HCT-116 colon

Structure (SMILES) | GI50 (CAKI-1 renal) [µM] | TGI (CAKI-1 renal) [µM] | TGI (ACHN renal) [µM] | GI50 (MALME-3M melanoma) [µM] | TGI (MALME-3M melanoma) | GI50 (SK-OV-3 ovarian) [µM] | TGI (SK-OV-3 ovarian) [µM] | TGI (NCI-H522 lung) [µM] | GI50 (U251 CNS) [µM] | TGI (U251 CNS) [µM] | GI50 (TK-10 renal) [µM] | TGI (TK-10 renal) [µM] | GI50 (786-0 renal) [µM] | TGI (786-0 renal) [µM] | TGI (COLO 205 colon) [µM] | GI50 (HCT-116 colon) [µM] | TGI (HCT-116 colon) [µM] | GI50 (ACHN renal) [µM] | GI50 (NCI-H522 lung) [µM] | GI50 (COLO 205 colon) [µM]
CCc1nc(N)nc(N)c1-c1ccc(Cl)cc1 | 6.34 | > 100 | > 100 | 59.3 | > 100 µM and 99.6 µM | 84.9 | > 100 | > 100 | 5.65 | > 100 | 88.3 | > 100 | 5.89 | > 100 | > 100 | 2.85 | > 100 |  |  | 
O=c1[nH]nc(-c2ccccc2)c(-c2ccccc2)c1-n1nc(-c2ccccc2)c2ccccc2c1=O |  | > 100 | > 100 |  | > 100 µM |  | > 100 | > 100 |  | > 100 |  | > 100 |  | > 100 | > 100 |  | > 100 |  |  | 
COc1c(O)c2ccccc2c2cc(O)ccc12 |  | 22.9 | 14.5 |  | 3.18 µM |  | 55 | 15.7 |  | 17.9 |  | 61.2 |  | 25.1 | 31.5 |  | 13.8 |  |  | 
COc1ccccc1/C=C1\COc2ccc(O)c(O)c2C1=O | 1.48 | 4.15 | 2.64 | 1.38 | 3.72 µM | 4.68 | > 100 | 0.656 | 1.57 | 3.99 | 3.08 | > 100 | 2.2 | 6.72 | 8.98 | 1.61 | 3.99 | 1.31 | 0.214 | 3.14
NC(=O)C/C=C/CC(N)=O |  | > 100 | > 100 |  | > 100 µM |  | > 100 | > 100 |  | > 100 |  | > 100 |  | > 100 | > 100 |  | > 100 |  |  | 
COC(=O)C1=CC(=O)C(C(=O)Nc2ccc(OC)cc2)C(c2ccccc2)O1 (stereo not given) |  | > 60 | > 71.9 |  | > 84.8 µM |  | 53.5 | 90.1 |  | 51.2 |  | 73.5 |  | 41.5 | > 100 |  | > 75.9 |  |  | 
COc1cc[c]([Hg][Cl])cc1 | 6.55 | 23 | 3.47 | 1.88 | 3.69 µM | 14.2 | 27.3 | 2.61 | 1.82 | 3.51 | 17.5 | 31.4 | 3.76 | 10.8 | 4 | 4.49 | 18.4 | 1.81 | 0.45 | 2.06
Clc1ccc(Cl)c(N/N=C\c2c[nH]c3ccccc23)c1 | 5.43 | 19.6 | 32.6 | 20.3 | 39.8 µM | 12.8 | 27.2 | 14.8 | 22 | > 100 | 12 | 26.8 | 12.8 | 25.4 | 30.4 | 14.8 | 27.9 | 12 | 1.78 | 14
CN(C)C1(C#N)CCC2(CC1)OCCO2 |  | > 100 | > 100 |  | > 100 µM |  | > 100 | > 100 |  | > 100 |  | > 100 |  | > 100 | > 100 |  | > 100 |  |  | 
CN(C)CCCn1cnc2ncccc2c1=O |  | > 100 | > 100 |  | > 100 µM |  | > 100 | > 100 |  | > 100 |  | > 100 |  | > 100 | > 100 |  | > 100 |  |  | 
Cc1cc2c(-c3nc4ccccc4[nH]3)c(O)c(O)cc2c(O)c1-c1c(C)cc2c(-c3nc4ccccc4[nH]3)c(O)c(O)cc2c1O | 0.0496 | 0.628 | 0.697 | 0.0321 | 2.26 µM | 0.045 | 0.283 | 0.878 | 0.0174 |  | 0.0386 | > 42.1 | 0.0801 | 1.01 | 0.913 | 0.00866 | 3.29 | 0.0292 | 0.0449 | 0.0231
O=c1c(Cl)nsnc1Cl |  | 37.3 | 14.7 |  | 84.5 µM |  | 35 | 3.81 |  | 35.9 |  | 7.93 |  | 3.32 | 3.87 |  | 20.5 |  |  | 
COc1ccc(NC(=O)CC/C(CC(=O)c2ccco2)=N/Nc2ccc([N+](=O)[O-])cc2[N+](=O)[O-])cc1 |  | > 100 | > 100 |  | > 100 µM |  | > 100 | > 100 |  | > 100 |  | > 100 |  | > 100 | > 100 |  | > 100 |  |  | 
CCOP1(=O)OCC2OC(n3cnc4c(N)ncnc43)C(O)C2O1 (stereo not given) |  | > 100 | > 100 |  | > 100 µM |  | > 100 | > 100 |  | > 100 |  | > 100 |  | > 100 | > 100 |  | > 100 |  |  | 
C#Cc1cccc(NC(=O)Nc2ccccc2NC(=O)CCl)c1 | 15.1 | 33.8 | 30.6 | 19.5 | 56.7 µM | > 82.5 | > 82.5 | 71.5 | 15.4 | 33.1 | 25.5 | > 82.5 | 29.7 | > 82.5 | > 82.5 | 24.5 | > 82.5 | 14.5 | 20.8 | 29
COc1ccc(C(=O)c2cc3c(N)c(C(=O)Nc4cccc(Cl)c4)sc3nc2C)cc1 | 1.28 | > 33.3 | > 33.3 | 1.28 | > 33.3 µM | 1.58 | > 33.3 | > 33.3 | 1.38 | > 33.3 | > 33.3 | > 33.3 | 2.67 | > 33.3 | > 33.3 | 1.45 | > 33.3 | 2.12 | 1.1 | 1.67
CC[C@]1(O)C[C@@H]2CN(Cc3c([nH]c4ccccc34)[C@@](C(=O)OC)(c3cc4c(cc3OC)N(C)[C@H]3[C@@](O)(C(=O)OC)[C@H](OC(C)=O)[C@]5(CC)[C@@H]6C[C@@H]6CN6CC[C@]43[C@@H]65)C2)C1 | > 4.38 | > 4.38 | > 4.38 | 2.6 | > 4.38 µM | 0.0841 | > 4.38 | 0.0947 | 0.112 | > 4.38 | > 3.69 | > 4.38 | 0.713 | > 4.38 | 0.252 | 0.0351 | > 4.38 | 3.38 | 0.0105 | 0.0298
COC(=O)C1=C(O)C(O)=C(C(=O)OC)CC1 |  | > 100 | > 100 |  | > 100 µM |  | > 100 | > 100 |  | > 100 |  | > 100 |  | > 100 | > 100 |  | 28.9 |  |  | 
COc1ccc(CN(O)C2C(CO)OC(n3cc(I)c(=O)[nH]c3=O)C2O)cc1 (stereo not given) |  | > 100 | > 100 |  | > 100 µM |  | > 100 | > 100 |  | > 100 |  | > 100 |  | > 100 | > 100 |  | > 100 |  |  | 
COc1ccc(C(=O)/C=C/c2ccc(Cl)cc2)cc1S(N)(=O)=O | 2.72 | 10.6 | 4.12 | 5.89 | 20.2 µM | 5.96 | 18.6 | 4.51 | 1.96 | 4.27 | 2.47 | 7.81 | 1.74 | 3.69 | 4.84 | 1.36 | 2.7 | 1.94 | 1.93 | 2.03
CCc1cc(C(N)=O)ccc1-n1nc(C(C)C)c2c(-n3cnc(-c4cnn(C)c4)c3)ccnc21 | 5.61 | > 100 | > 100 | 1.05 | > 31.3 µM | 0.492 | > 100 | > 100 | 3.82 | > 100 | 1.23 | > 100 | 5.67 | > 100 |  | 0.554 | > 100 | 1.62 | 1.47 | 0.387
Cn1cc(-c2ccc3cc(-c4ccc(CC(=O)Nc5cc(C(C)(C)C)nn5C)cc4)cnc3c2)cn1 | 0.0519 | > 100 | > 100 | 0.146 | > 100 µM | 0.109 | > 100 | > 100 | 0.236 | > 100 | 0.492 | > 100 | 0.351 | > 100 | > 100 | 0.191 | > 100 | 0.11 | 0.251 | 0.441
O=C(Nc1nc2ncn(CCOC(=O)c3ccccc3)c2c(=O)[nH]1)c1ccccc1 |  | > 100 | > 100 |  | > 100 µM |  | > 79.9 | 8.32 |  | > 64.8 |  | > 100 |  | > 100 | 23.6 |  | > 100 |  |  | 
N#Cc1c([N+](=O)[O-])cc(C(F)(F)F)cc1[N+](=O)[O-] |  | 8.94 | 20 |  | 25.5 µM |  | 33.2 | 1.24 |  | 33.7 |  | 18.1 |  | 12.7 | 14.8 |  | 20 |  |  | 
